Several values for one entry are separate records, joined by “and”; a condition that tells them apart may be missing. Identical values can stand only once.
How the values were obtained:
[1] = tested on: human subjects with a history of nephrolithiasis; experiment: Renal function measures and serum urate in 4-week double-blind phase 2 study and open-label long-term febuxostat study; assay type: in vivo; conditions: for Measured Creatinine Clearance / Serum Creatinine / Urine Uric Acid / Estimated GFR / Serum Urate: individual subjects
Procedure: (1) febuxostat 40 mg per day, (2) febuxostat 80 mg per day, (3) febuxostat 120 mg per day, or (4) placebo. Subjects completing the double-blind study entered an open-label, long-term study and began treatment with 80 mg febuxostat per day. Febuxostat doses could be titrated over the initial 6 months to 40 mg or 120 mg febuxostat per day based on the subjects' serum urate levels and the occurrence of adverse events. In the study subset, a post-hoc analysis of nephrolithiasis outcome in the study subjects (n=13) who had received febuxostat for ≧30 months. In the event of an occurrence of renal calculus formation, all such stones were analyzed for mineral content. The following were the criteria for inclusion in the study: (1) a history or presence of gout as defined by the American Rheumatism Association Preliminary criteria; […] (3) serum urate level of ≧8.0 mg/dL at the start of the double-blind study. The following were the criteria for exclusion from the study: […]

[2] = tested on: human subjects with a history of nephrolithiasis; experiment: Adverse events and discontinuations in the double-blind and open-label febuxostat study; assay type: in vivo
Procedure: (1) febuxostat 40 mg per day, (2) febuxostat 80 mg per day, (3) febuxostat 120 mg per day, or (4) placebo. Subjects completing the double-blind study entered an open-label, long-term study and began treatment with 80 mg febuxostat per day. Febuxostat doses could be titrated over the initial 6 months to 40 mg or 120 mg febuxostat per day based on the subjects' serum urate levels and the occurrence of adverse events.

[3] = tested on: remnant kidney (RK) rats; experiment: Body weight, food and water intake in remnant kidney rats; assay type: in vivo, Male Wistar rats; conditions: for BW / BW Gain (from baseline): End of Week 4
Procedure: Male Wistar rats (295-340 g) were used to produce rats with remnant kidney (RK) as follows. […] Rats were then assigned to one of four treatment groups: Group 1, RK control rats (n=7); Group 2, RK+febuxostat (Fx) rats (n=8); Group 3, RK+oxonic acid (OA) rats (n=6); and Group 4, RK+OA+Fx (n=10). Oxonic acid (OA) (Sigma-Aldrich, St Louis Mo., USA), administered at 750 mg/kg body weight daily by oral gavage, was given starting the day after the ⅚ nephrectomy. Beginning immediately following the surgery, febuxostat was administered in drinking water at 30 mg/L (3-4 mg/kg/day), whereas the respective controls received only drinking water (with 3.5 mg/L of NaCl added to keep an equivalent salt concentration to the Fx-containing water). All groups were treated for four weeks. Body weight (beginning just before surgery) and food and water intakes were measured daily. Systolic blood pressure, measured in conscious rats by a tail cuff sphygmomanometer, and plasma uric acid (UA) levels were measured at just before surgery (namely, at baseline) and at the end of the four weeks. Proteinuria was measured at baseline and at the end of two and four weeks. A renal micropuncture procedure along with systemic blood pressure monitoring under pentobarbital anesthesia was performed at the end of four weeks followed by morphologic evaluation of the renal preglomerular microvasculature. Food and water intake were determined daily. Systolic blood pressure (SBP) was measured by a tail-cuff sphygmomanometer using an automated system (XBP-100; Kent Scientific Co, Torrington, Conn., USA) in conscious animals. All animals were preconditioned for blood pressure measurements one week before each experiment. Plasma uric acid was quantified using a commercial kit (Diagnostic Chemicals Ltd, Charlottetown, PEI, Canada). Proteinuria was determined by turbidimetry by the method of trichloroacetic acid as described in Henry R J et al., “Turbidimetric determination of proteins with sulfosalicylic and tricholoroacetic acids”, Proc Soc Exp Biol Med 92:748-751 (1956), the contents of which are herein incorporated by reference.

[4] = tested on: normal Sprague-Dawley rats; experiment: Water intake in normal rats (earlier data of the laboratory); assay type: in vivo; conditions: previous data of this laboratory
[5] = tested on: remnant kidney (RK) rats; experiment: Plasma uric acid in remnant kidney rats; assay type: in vivo, Male Wistar rats
Procedure: Male Wistar rats (295-340 g) were used to produce rats with remnant kidney (RK) as follows. […] Rats were then assigned to one of four treatment groups: Group 1, RK control rats (n=7); Group 2, RK+febuxostat (Fx) rats (n=8); Group 3, RK+oxonic acid (OA) rats (n=6); and Group 4, RK+OA+Fx (n=10). Oxonic acid (OA) (Sigma-Aldrich, St Louis Mo., USA), administered at 750 mg/kg body weight daily by oral gavage, was given starting the day after the ⅚ nephrectomy. Beginning immediately following the surgery, febuxostat was administered in drinking water at 30 mg/L (3-4 mg/kg/day), whereas the respective controls received only drinking water (with 3.5 mg/L of NaCl added to keep an equivalent salt concentration to the Fx-containing water). All groups were treated for four weeks. Body weight (beginning just before surgery) and food and water intakes were measured daily. Systolic blood pressure, measured in conscious rats by a tail cuff sphygmomanometer, and plasma uric acid (UA) levels were measured at just before surgery (namely, at baseline) and at the end of the four weeks. Proteinuria was measured at baseline and at the end of two and four weeks. A renal micropuncture procedure along with systemic blood pressure monitoring under pentobarbital anesthesia was performed at the end of four weeks followed by morphologic evaluation of the renal preglomerular microvasculature. Food and water intake were determined daily. Systolic blood pressure (SBP) was measured by a tail-cuff sphygmomanometer using an automated system (XBP-100; Kent Scientific Co, Torrington, Conn., USA) in conscious animals. […] Plasma uric acid was quantified using a commercial kit (Diagnostic Chemicals Ltd, Charlottetown, PEI, Canada). Proteinuria was determined by turbidimetry by the method of trichloroacetic acid as described in Henry R J et al., “Turbidimetric determination of proteins with sulfosalicylic and tricholoroacetic acids”, Proc Soc Exp Biol Med 92:748-751 (1956), the contents of which are herein incorporated by reference.

[6] = tested on: remnant kidney (RK) rats; experiment: Systolic blood pressure by tail cuff in conscious remnant kidney rats; assay type: in vivo, Male Wistar rats; conditions: all four groups, after four weeks; corroborated by mean arterial pressure under anesthesia
Procedure: Male Wistar rats (295-340 g) were used to produce rats with remnant kidney (RK) as follows. […] Rats were then assigned to one of four treatment groups: Group 1, RK control rats (n=7); Group 2, RK+febuxostat (Fx) rats (n=8); Group 3, RK+oxonic acid (OA) rats (n=6); and Group 4, RK+OA+Fx (n=10). Oxonic acid (OA) (Sigma-Aldrich, St Louis Mo., USA), administered at 750 mg/kg body weight daily by oral gavage, was given starting the day after the ⅚ nephrectomy. […] Body weight (beginning just before surgery) and food and water intakes were measured daily. Systolic blood pressure, measured in conscious rats by a tail cuff sphygmomanometer, and plasma uric acid (UA) levels were measured at just before surgery (namely, at baseline) and at the end of the four weeks. Proteinuria was measured at baseline and at the end of two and four weeks. […] Food and water intake were determined daily. Systolic blood pressure (SBP) was measured by a tail-cuff sphygmomanometer using an automated system (XBP-100; Kent Scientific Co, Torrington, Conn., USA) in conscious animals. […] Plasma uric acid was quantified using a commercial kit (Diagnostic Chemicals Ltd, Charlottetown, PEI, Canada). […]

[7] = double-blind Wk 4, DB dose 40 mg/day
[8] = double-blind Wk 4, DB dose 80 mg/day
[9] = double-blind Wk 4, DB dose 120 mg/day
[10] = open-label Yr 1, OL dose 80 mg/day
[11] = open-label Yr 1, OL dose 120 mg/day
[12] = open-label Yr 2, OL dose 80 mg/day
[13] = open-label Yr 2, OL dose 120 mg/day
[14] = open-label Yr 3, OL dose 80 mg/day
[15] = open-label Yr 3, OL dose 120 mg/day
[16] = number of subjects, N = 18, open-label study
[17] = RK + OA + Fx group (OA-induced hyperuricemia)
[18] = RK + OA + Fx group (OA-induced hyperuricemia), Week 1
[19] = RK + OA + Fx group (OA-induced hyperuricemia), Week 2
[20] = RK + OA + Fx group (OA-induced hyperuricemia), Week 3
[21] = RK + OA + Fx group (OA-induced hyperuricemia), Week 4
[22] = RK rats (RK + Fx or RK + OA group)
[23] = RK rats (RK + Fx or RK + OA group), Week 1
[24] = RK rats (RK + Fx or RK + OA group), Week 2
[25] = RK rats (RK + Fx or RK + OA group), Week 3
[26] = RK rats (RK + Fx or RK + OA group), Week 4

Cc1nc(-c2ccc(OCC(C)C)c(C#N)c2)sc1C(=O)O [febuxostat, 2-[3-cyano-4-(2-methylpropoxy)phenyl]-4-methylthiazole-5-carboxylic acid]
Measured Creatinine Clearance [1, 7]: 82 mL/min and 56 mL/min | Serum Creatinine [1, 7]: 1.2 mg/dL and 1.3 mg/dL | Urine Uric Acid [1, 7]: 504 mg/day and 202 mg/day | Measured Creatinine Clearance [1, 8]: 103 mL/min and 147 mL/min and 93 mL/min and 88 mL/min and 63 mL/min and 64 mL/min and 94 mL/min | Serum Creatinine [1, 8]: 1.1 mg/dL (3×) and 1.2 mg/dL (3×) and 1.5 mg/dL | Urine Uric Acid [1, 8]: 387 mg/day and 504 mg/day and 319 mg/day and 286 mg/day and 235 mg/day and 185 mg/day and 403 mg/day | Measured Creatinine Clearance [1, 9]: 38 mL/min | Serum Creatinine [1, 9]: 1.4 mg/dL | Urine Uric Acid [1, 9]: 17 mg/day | Estimated GFR [1, 10]: 80 mL/min and 73 mL/min (2×) and 67 mL/min and 68 mL/min (2×) and 57 mL/min and 61 mL/min and 54 mL/min and 33 mL/min and 49 mL/min | Serum Creatinine [1, 10]: 1.1 mg/dL (2×) and 1.2 mg/dL (4×) and 1.4 mg/dL (2×) and 1.3 mg/dL and 1.6 mg/dL and 1.5 mg/dL | Serum Urate [1, 10]: 4.3 mg/dL and 5.9 mg/dL and 4.4 mg/dL (2×) and 6.1 mg/dL and 4.5 mg/dL and 6.4 mg/dL and 4.1 mg/dL and 3.6 mg/dL and 7.4 mg/dL and 4.6 mg/dL | Estimated GFR [1, 11]: 63 mL/min and 84 mL/min | Serum Creatinine [1, 11]: 1.2 mg/dL and 1.0 mg/dL | Serum Urate [1, 11]: 3.1 mg/dL and 4.6 mg/dL | Estimated GFR [1, 12]: 72 mL/min and 80 mL/min and 74 mL/min and 61 mL/min and 62 mL/min and 56 mL/min and 59 mL/min and 39 mL/min and 49 mL/min and 73 mL/min and 75 mL/min | Serum Creatinine [1, 12]: 1.2 mg/dL and 1.1 mg/dL (4×) and 1.3 mg/dL (3×) and 1.4 mg/dL (2×) and 1.5 mg/dL | Serum Urate [1, 12]: 4.1 mg/dL and 4.2 mg/dL and 4.8 mg/dL and 7.6 mg/dL and 6.4 mg/dL and 9.7 mg/dL and 5.4 mg/dL and 4.7 mg/dL and 6.0 mg/dL and 4.4 mg/dL and 5.7 mg/dL | Estimated GFR [1, 13]: 58 mL/min and 75 mL/min | Serum Creatinine [1, 13]: 1.3 mg/dL and 1.1 mg/dL | Serum Urate [1, 13]: 3.0 mg/dL and 4.2 mg/dL | Estimated GFR [1, 14]: 72 mL/min (2×) and 66 mL/min and 61 mL/min and 57 mL/min and 51 mL/min and 54 mL/min and 39 mL/min and 40 mL/min and 65 mL/min and 67 mL/min | Serum Creatinine [1, 14]: 1.2 mg/dL (5×) and 1.3 mg/dL and 1.4 mg/dL (3×) and 1.5 mg/dL and 1.8 mg/dL | Serum Urate [1, 14]: 5.8 mg/dL (2×) and 3.2 mg/dL and 3.9 mg/dL and 3.3 mg/dL and 7.5 mg/dL and 4.6 mg/dL and 3.8 mg/dL (2×) and 6.8 mg/dL and 5.2 mg/dL | Estimated GFR [1, 15]: 57 mL/min and 52 mL/min | Serum Creatinine [1, 15]: 1.3 mg/dL and 1.5 mg/dL | Serum Urate [1, 15]: 3.3 mg/dL and 3.8 mg/dL | Renal function throughout the study ([1]; subjects receiving febuxostat): maintained at generally stable levels | Diarrhea (excluding infectious) [2, 16]: 7 | Edema NEC [2, 16]: 3 | Gastrointestinal and Abdominal Pains (excluding oral and throat) [2, 16]: 3 | Joint Related Signs and Symptoms [2, 16]: 6 | Lower Respiratory Tract and Lung Infections [2, 16]: 5 | Musculoskeletal and Connective Tissue Signs and Symptoms NEC [2, 16]: 5 | Non-Site Specific Injuries [2, 16]: 4 | Rashes, Eruptions and Exanthems NEC [2, 16]: 3 | Total Subjects with ≧1 AE [2, 16]: 17 | Upper Respiratory Infections [2, 16]: 12 | Urinary Tract Infections [2, 16]: 3 | Serum creatinine at Withdrawal (adverse event Increased Creatinine) ([2]; one subject, open-label, Baseline: 1.6 mg/dL): 2.1 mg/dL | Serum creatinine at Follow-up (adverse event Increased Creatinine) ([2]; one subject, Follow-up Day 163, two weeks off study medication): 1.9 mg/dL | BW [3, 17]: 316.7 ± 12.3 g | BW Gain (from baseline) [3, 17]: -3.0 ± 11.5 g | Daily Food Intake [3, 18]: 8.7 ± 1.7 g | Daily Water Intake [3, 18]: 30.2 ± 2.8 mL | Daily Food Intake [3, 19]: 16.0 ± 0.7 g | Daily Water Intake [3, 19]: 40.6 ± 2.6 mL | Daily Food Intake [3, 20]: 18.4 ± 0.5 g | Daily Water Intake [3, 20]: 38.6 ± 1.0 mL | Daily Food Intake [3, 21]: 18.6 ± 0.5 g | Daily Water Intake [3, 21]: 40.5 ± 1.6 mL | BW [3, 22]: 340.6 ± 10.8 g | BW Gain (from baseline) [3, 22]: 18.4 ± 8.2 g | Daily Food Intake [3, 23]: 8.6 ± 1.5 g | Daily Water Intake [3, 23]: 31.5 ± 1.4 mL | Daily Food Intake [3, 24]: 15.4 ± 0.5 g | Daily Water Intake [3, 24]: 32.6 ± 1.2 mL | Daily Food Intake [3, 25]: 20.2 ± 0.5 g | Daily Water Intake [3, 25]: 37.2 ± 2.5 mL | Daily Food Intake [3, 26]: 22.4 ± 1.3 g | Daily Water Intake [3, 26]: 39.4 ± 1.6 mL | Water intake in RK rats during febuxostat treatment (in words) ([3]; RK rats, normal daily water intake 35-40 mL): reduced to near normal levels | Body weight or body weight gain between the four treatment groups (in words) ([3]; end of the study): no significant differences in body weight or body weight gain | Effect on water intake [4]: no effect on water intake | Plasma uric acid as % of the value measured in the RK control rats ([5]; RK rats receiving febuxostat, end of four weeks, difference not statistically significant): approximately 63% | Plasma uric acid in OA-treated rats (in words) ([5]; febuxostat added to OA-treated RK rats): prevented the'rise of uric acid levels | Systolic blood pressure (in words) [6]: developed systemic hypertension to approximately the same degree

— US20130143886A1, “METHODS FOR PRESERVING AND/OR INCREASING RENAL FUNCTION USING XANTHINE OXIDOREDUCTASE INHIBITORS” (priority 2006, published 2013)
